What was measured:
Type in all cases: cell-based
Conditions in all cases: HEK-293-EBNA stable transfectants
hEP4 = biological target: T1, hEP4 (Homo sapiens, UniProt P35408); experiment: Functional data, human recombinant EP4 receptor stable transfectants
T1 construct: expressed in transfected cells; host or cells: HEK-293-EBNA
Experimental: (§1) Human Recombinant EP1, EP2, EP3, EP4, FP, TP, IP and DP Receptors: Stable Transfectants.
(§2) Plasmids encoding the human EP1, EP2, EP3, EP4, FP, TP, IP and DP receptors were prepared by cloning the respective coding sequences into the eukaryotic expression vector pCEP4 (Invitrogen). The pCEP4 vector contains an Epstein Barr virus (EBV) origin of replication, which permits episomal replication in primate cell lines expressing EBV nuclear antigen (EBNA-1). It also contains a hygromycin resistance gene that is used for eukaryotic selection. The cells employed for stable transfection were human embryonic kidney cells (HEK-293) that were transfected with and express the EBNA-1 protein. These HEK-293-EBNA cells (Invitrogen) were grown in medium containing Geneticin (G418) to maintain expression of the EBNA-1 protein. HEK-293 cells were grown in DMEM with 10% fetal bovine serum (FBS), 250 μg ml^−1 G418 (Life Technologies) and 200 μg ml^−1 gentamicin or penicillin/streptomycin.
(§3) For transfection, the cells were grown to 50-60% confluency on 10 cm plates. The plasmid pCEP4 incorporating cDNA inserts for the respective human prostanoid receptor (20 μg) was added to 500 μl of 250 mM CaCl2. HEPES buffered saline×2 (2×HBS, 280 mM NaCl, 20 mM HEPES acid, 1.5 mM Na2 HPO4, pH 7.05-7.12) was then added dropwise to a total of 500 μl, with continuous-vortexing at room temperature. After 30 min, 9 ml DMEM were added to the mixture. The DNA/DMEM/calcium phosphate mixture was then added to the cells, which had been previously rinsed with 10 ml PBS. The cells were then incubated for 5 hr at 37° C. in humidified 95% air/5% CO2. The calcium phosphate solution was then removed and the cells were treated with 10% glycerol in DMEM for 2 min. The glycerol solution was then replaced by DMEM with 10% FBS. The cells were incubated overnight and the medium was replaced by DMEM/10% FBS containing 250 μg ml^−1 G418 and penicillin/streptomycin. The following day hygromycin B was added to a final concentration of 200 μg ml^−1.
(§4) Ten days after transfection, hygromycin B resistant clones were individually selected and transferred to a separate well on a 24 well plate. At confluence each clone was transferred to one well of a 6 well plate, and then expanded in a 10 cm dish. Cells were maintained under continuous hygromycin selection until use.

hTP = biological target: T2, hTP (Homo sapiens, UniProt P21731); experiment: Functional data, human recombinant TP receptor stable transfectants
T2 construct: expressed in transfected cells; host or cells: HEK-293-EBNA
T2 sequence (P21731 1-343): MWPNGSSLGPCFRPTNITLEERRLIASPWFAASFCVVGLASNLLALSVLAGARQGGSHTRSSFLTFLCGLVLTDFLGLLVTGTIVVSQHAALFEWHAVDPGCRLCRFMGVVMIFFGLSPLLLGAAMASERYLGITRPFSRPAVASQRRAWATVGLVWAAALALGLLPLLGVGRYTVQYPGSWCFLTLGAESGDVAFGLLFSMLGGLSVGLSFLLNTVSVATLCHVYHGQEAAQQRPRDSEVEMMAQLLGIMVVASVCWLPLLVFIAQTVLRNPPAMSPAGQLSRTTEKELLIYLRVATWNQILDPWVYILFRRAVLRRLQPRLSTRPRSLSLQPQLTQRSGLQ
Experimental: as §1, §2, §3, §4

hEP3A = biological target: T3, hEP3A (Homo sapiens, UniProt P43115); experiment: Functional data, human recombinant EP3 receptor stable transfectants
T3 construct: expressed in transfected cells; host or cells: HEK-293-EBNA
T3 sequence (P43115 1-390): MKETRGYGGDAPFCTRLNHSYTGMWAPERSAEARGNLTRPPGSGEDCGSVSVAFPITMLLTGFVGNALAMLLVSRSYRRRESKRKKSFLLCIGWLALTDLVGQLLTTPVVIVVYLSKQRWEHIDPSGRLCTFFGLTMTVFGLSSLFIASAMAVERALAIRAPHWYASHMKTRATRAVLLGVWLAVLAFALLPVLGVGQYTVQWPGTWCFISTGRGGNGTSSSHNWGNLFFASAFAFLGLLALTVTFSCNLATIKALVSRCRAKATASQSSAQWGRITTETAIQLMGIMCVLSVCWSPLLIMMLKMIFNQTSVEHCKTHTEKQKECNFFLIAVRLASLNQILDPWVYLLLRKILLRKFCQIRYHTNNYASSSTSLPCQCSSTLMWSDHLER
Experimental: as §1, §2
(§5) For transfection, the cells were grown to 50-60% confluency on 10 cm plates. The plasmid pCEP4 incorporating cDNA inserts for the respective human prostanoid receptor (20 μg) was added to 500 μl of 250 mM CaCl2. HEPES buffered saline×2 (2×HBS, 280 mM NaCl, 20 mM HEPES acid, 1.5 mM Na2 HPO4, pH 7.05-7.12) was then added dropwise to a total of 500 μl, with continuous-vortexing at room temperature. […]

hEP1 = biological target: T4, hEP1 (Homo sapiens, UniProt P34995); experiment: Functional data, human recombinant EP1 receptor stable transfectants
T4 construct: expressed in transfected cells; host or cells: HEK-293-EBNA
T4 sequence (P34995 1-402): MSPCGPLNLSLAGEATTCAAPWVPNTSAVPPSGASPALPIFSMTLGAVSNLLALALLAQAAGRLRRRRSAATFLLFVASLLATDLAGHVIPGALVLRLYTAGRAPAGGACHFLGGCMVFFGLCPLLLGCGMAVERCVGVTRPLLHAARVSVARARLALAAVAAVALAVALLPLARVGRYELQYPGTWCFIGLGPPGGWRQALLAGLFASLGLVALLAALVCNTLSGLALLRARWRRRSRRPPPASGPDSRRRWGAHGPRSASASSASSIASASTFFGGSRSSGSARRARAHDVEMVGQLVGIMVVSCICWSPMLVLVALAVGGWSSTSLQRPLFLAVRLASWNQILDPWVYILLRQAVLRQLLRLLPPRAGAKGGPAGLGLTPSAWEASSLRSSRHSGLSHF
Experimental: as §1, §2, §5

hEP2 = biological target: T5, hEP2 (Homo sapiens, UniProt P43116); experiment: Functional data, human recombinant EP2 receptor stable transfectants
T5 construct: expressed in transfected cells; host or cells: HEK-293-EBNA
T5 sequence (P43116 whole entry): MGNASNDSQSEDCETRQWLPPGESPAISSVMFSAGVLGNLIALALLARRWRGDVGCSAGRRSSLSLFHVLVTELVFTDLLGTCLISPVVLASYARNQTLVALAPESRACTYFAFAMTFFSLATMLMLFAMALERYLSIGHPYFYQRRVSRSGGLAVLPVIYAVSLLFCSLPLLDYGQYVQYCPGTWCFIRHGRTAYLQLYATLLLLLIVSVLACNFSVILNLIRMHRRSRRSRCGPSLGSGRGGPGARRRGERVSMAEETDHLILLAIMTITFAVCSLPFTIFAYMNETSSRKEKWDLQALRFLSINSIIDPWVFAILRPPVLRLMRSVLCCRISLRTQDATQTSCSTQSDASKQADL
Experimental: as §1, §2, §5

T1 sequence (P35408 whole entry): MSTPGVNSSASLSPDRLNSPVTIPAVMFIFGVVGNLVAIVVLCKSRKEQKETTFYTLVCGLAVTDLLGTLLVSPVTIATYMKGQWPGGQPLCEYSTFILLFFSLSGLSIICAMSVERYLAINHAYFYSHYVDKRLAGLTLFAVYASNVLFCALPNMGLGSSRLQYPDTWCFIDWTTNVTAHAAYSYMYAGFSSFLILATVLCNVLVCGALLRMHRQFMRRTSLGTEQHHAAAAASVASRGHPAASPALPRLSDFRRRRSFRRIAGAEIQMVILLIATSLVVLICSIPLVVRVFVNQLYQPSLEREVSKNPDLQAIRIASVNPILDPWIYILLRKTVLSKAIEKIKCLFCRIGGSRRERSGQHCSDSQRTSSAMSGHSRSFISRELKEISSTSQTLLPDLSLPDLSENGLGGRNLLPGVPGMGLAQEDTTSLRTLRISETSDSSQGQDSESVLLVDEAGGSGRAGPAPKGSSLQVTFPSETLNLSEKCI

SMILES	EC50 (hEP4) [nM]	EC50 (hTP) [nM]	also measured
O=C(O)COC/C=C\CN1C(=O)CCC[C@@H]1CCC(=O)Cc1ccccc1 [Example 14, {(Z)-4[(R)-2-Oxo-6-(3-oxo-4-phenyl-butyl)-piperidin-1-yl]-but-2-enyloxy}-acetic acid]	> 10000	> 10000	
O=C(O)COCCCCN1C(=O)CCC[C@@H]1CCC(O)Cc1ccccc1 (stereo partly drawn) [Example 6, {4-[(R)-2-(3-Hydroxy-4-phenyl-butyl)-6-oxo-piperidin-1-yl]-butoxy}-acetic acid]	> 10000		
COC(=O)COCCCCN1C(=O)CCC[C@@H]1CCC(=O)Cc1ccccc1 [Example 9, {4-[(R)-2-Oxo-6-(3-oxo-4-phenyl-butyl)-piperidin-1-yl]-butoxy}-acetic acid methyl ester]	7540		
O=C(O)COC/C=C\CN1C(=O)CCC[C@@H]1/C=C/C(=O)Cc1ccccc1 [Example 8, {(Z)-4-[(R)-2-Oxo-6-((E)-3-oxo-4-phenyl-but-1-enyl)-piperidin-1-yl]-but-2-enyloxy}-acetic acid]	2560	> 10000	
COC(=O)COCCCCN1C(=O)CCC[C@@H]1CCC(O)Cc1ccccc1 (stereo partly drawn) [Example 5, {4-[(R)-2-(3-Hydroxy-4-phenyl-butyl)-6-oxo-piperidin-1-yl]-butoxy}-acetic acid methyl ester]	> 10000		EC50 (hEP3A): > 10000 nM
O=C(O)COCCCCN1C(=O)CCC[C@@H]1/C=C/C(=O)Cc1ccccc1 [Example 2, {4-[(R)-2-Oxo-6-((E)-3-oxo-4-phenyl-but-1-enyl)-piperidin-1-yl]-butoxy}-acetic acid]	300	2260	EC50 (hEP3A): > 10000 nM
O=C(O)COCCCCN1C(=O)CCC[C@@H]1/C=C/C(O)Cc1ccccc1 (stereo partly drawn) [Example 4, {4-[(R)-2-((E)-3-Hydroxy-4-phenyl-but-1-enyl)-6-oxo-piperidin-1-yl]-butoxy}-acetic acid]	145		
O=C(O)COC/C=C\CN1C(=O)CCC[C@@H]1/C=C/C(O)Cc1ccccc1 (stereo partly drawn) [Example 12, {(Z)-4-[(R)-2-((E)-3-Hydroxy-4-phenyl-but-1-enyl)-6-oxo-piperidin-1-yl]-but-2-enyloxy}-acetic acid]	> 10000		
O=C(O)COC/C=C\CN1C(=O)CCC[C@@H]1CCC(O)Cc1ccccc1 (stereo partly drawn) [Example 16, {(Z)-4-[(R)-2-(3-Hydroxy-4-phenyl-butyl)-6-oxo-piperidin-1-yl]-but-2-enyloxy}-acetic acid]	> 10000		
O=C(O)COCCCCN1C(=O)CCC[C@@H]1/C=C/C(O)Cc1cccc(Cl)c1 (stereo partly drawn) [Example 17, (4-{(R)-2-[(E)4(3-Chlorophenyl)-3-hydroxy-but-1-enyl]-6-oxo-piperidin-1-yl}-butoxy)-acetic acid]			EC50 (hEP1): > 10000 nM; EC50 (hEP2): > 10000 nM
COC(=O)COCCCCN1C(=O)CCC[C@@H]1/C=C/C(O)Cc1ccccc1 (stereo partly drawn) [Example 3, {4-[(R)-2-((E)-3-Hydroxy-4-phenyl-but-1-enyl)-6-oxo-piperidin-1-yl]-butoxy}-acetic acid methyl ester]	1100		
NC(=O)COCCCCN1C(=O)CCC[C@@H]1/C=C/C(O)Cc1cccc(Cl)c1 (stereo partly drawn) [Example 18, 2-(4-{(R)-2-[(E)-4-(3-Chlorophenyl)-3-hydroxy-but-1 enyl]-6-oxo-piperidin-1-yl}-butoxy)-acetamide]		> 10000	
O=C(O)COCCCCN1C(=O)CCC[C@@H]1CCC(=O)Cc1ccccc1 [Example 10, {4-[(R)-2-Oxo-6-(3-oxo-4-phenyl-butyl)-piperidin-1-yl]-butoxy}-acetic acid]	1970	> 10000	
COC(=O)COCCCCN1C(=O)CCC[C@@H]1/C=C/C(=O)Cc1ccccc1 [Example 1, {4-[(R)-2-Oxo-6-((E)-3-oxophenyl-but-1-enyl)-piperidin-1-yl]-butoxy}-Acetic acid methyl ester]		> 10000	
